Measurements as given in ChEMBL document CHEMBL1201862, “PubChem BioAssay data set” (2004).
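Results reflect a 48-hour exposure of cells in 96-well plates to compound at five concentrations. GI50 is the concentration that inhibits growth by half.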 Activity calls are given as the source filed them. No stated cut-off is given here; in the data, active = GI50 up to about 1.1 µM and inactive = higher.

Assays:
Assay in all cases: growth of human tumour cells (NCI), 48 h
OVCAR-8 = tested on: OVCAR-8
A549 = tested on: A549
OVCAR-5 = tested on: OVCAR-5
LOX IMVI = tested on: LOX IMVI
SF-295 = tested on: SF-295
COLO 205 = tested on: COLO 205
UACC-257 = tested on: UACC-257
XF498 = tested on: XF498
DMS-114 = tested on: DMS-114
HOP-92 = tested on: HOP-92
SK-MEL-5 = tested on: SK-MEL-5
RXF 631 = tested on: RXF 631
TK-10 = tested on: TK-10
NCI-H460 = tested on: NCI-H460
A498 = tested on: A498
K562 = tested on: K562
SK-MEL-2 = tested on: SK-MEL-2
HCT-15 = tested on: HCT-15
SW-620 = tested on: SW-620
OVCAR-3 = tested on: OVCAR-3
CCRF-CEM = tested on: CCRF-CEM
HOP-62 = tested on: HOP-62
M19-MEL = tested on: M19-MEL
HT-29 = tested on: HT-29
SNB-75 = tested on: SNB-75
IGROV-1 = tested on: IGROV-1
HCT-116 = tested on: HCT-116
RPMI-8226 = tested on: RPMI-8226
ACHN = tested on: ACHN
SNB-78 = tested on: SNB-78
SK-MEL-28 = tested on: SK-MEL-28
KM-20L2 = tested on: KM-20L2
KM12 = tested on: KM12
U-251 = tested on: U-251
UACC-62 = tested on: UACC-62
DLD-1 = tested on: DLD-1
NCI-H23 = tested on: NCI-H23
786-0 = tested on: 786-0
HL-60 = tested on: HL-60
LXFL 529 = tested on: LXFL 529
Malme-3M = tested on: Malme-3M
DMS-273 = tested on: DMS-273
EKVX = tested on: EKVX
M14 = tested on: M14
HOP-18 = tested on: HOP-18
SK-OV-3 = tested on: SK-OV-3
HCC 2998 = tested on: HCC 2998
CAKI-1 = tested on: CAKI-1
SF-539 = tested on: SF-539
OVCAR-4 = tested on: OVCAR-4
MOLT-4 = tested on: MOLT-4

**Q.** Which results are given for `CC(=O)N1CCc2[nH]c3ccccc3c2CC1`?
**A.** GI50 (OVCAR-8): > 100 µM (inactive); GI50 (A549): > 100 µM (inactive); GI50 (OVCAR-5): > 100 µM (inactive); GI50 (LOX IMVI): > 100 µM (inactive); GI50 (SF-295): > 100 µM (inactive); GI50 (COLO 205): > 100 µM (inactive); GI50 (UACC-257): > 100 µM (inactive); GI50 (XF498): > 100 µM (inactive); GI50 (DMS-114): > 100 µM (inactive); GI50 (HOP-92): 31.5 µM (inactive); GI50 (SK-MEL-5): > 100 µM (inactive); GI50 (RXF 631): > 100 µM (inactive); GI50 (TK-10): > 100 µM (inactive); GI50 (NCI-H460): > 100 µM (inactive); GI50 (A498): > 100 µM (inactive); GI50 (K562): > 100 µM (inactive); GI50 (SK-MEL-2): > 100 µM (inactive); GI50 (HCT-15): > 100 µM; GI50 (SW-620): > 100 µM (inactive); GI50 (OVCAR-3): > 100 µM (inactive); GI50 (CCRF-CEM): > 100 µM (inactive); GI50 (HOP-62): > 100 µM (inactive); GI50 (M19-MEL): > 100 µM (inactive); GI50 (HT-29): > 100 µM (inactive); GI50 (SNB-75): 19.9 µM (inactive); GI50 (IGROV-1): > 100 µM (inactive); GI50 (HCT-116): > 100 µM (inactive); GI50 (RPMI-8226): > 100 µM (inactive); GI50 (ACHN): > 100 µM (inactive); GI50 (SNB-78): > 100 µM (inactive); GI50 (SK-MEL-28): > 100 µM (inactive); GI50 (KM-20L2): > 100 µM (inactive); GI50 (KM12): > 100 µM (inactive); GI50 (U-251): > 100 µM (inactive); GI50 (UACC-62): 86.1 µM (inactive); GI50 (DLD-1): > 100 µM (inactive); GI50 (NCI-H23): > 100 µM (inactive); GI50 (786-0): > 100 µM (inactive); GI50 (HL-60): > 100 µM (inactive); GI50 (LXFL 529): > 100 µM (inactive); GI50 (Malme-3M): > 100 µM (inactive); GI50 (DMS-273): > 100 µM (inactive); GI50 (EKVX): > 100 µM (inactive); GI50 (M14): > 100 µM (inactive); GI50 (HOP-18): 86.9 µM (inactive); GI50 (SK-OV-3): > 100 µM (inactive); GI50 (HCC 2998): > 100 µM (inactive); GI50 (CAKI-1): > 100 µM (inactive); GI50 (SF-539): > 100 µM (inactive); GI50 (OVCAR-4): > 100 µM (inactive); GI50 (MOLT-4): > 100 µM (inactive)
